#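 Cells were grown in 96-well plates and exposed to each compound for 48 hours at five concentrations; endpoints were interpolated linearly between bracketing concentrations, or set to the highest concentration if not reached. At the TGI there is no net growth.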
# Assays:
# Assay in all cases: DTP human tumour cell line panel, 48 h
# MDA-N = test system: MDA-N
# T-47D breast = test system: T-47D breast
# A549 NSCLC = test system: A549 NSCLC
# NCI-H226 lung = test system: NCI-H226 lung
# COLO 205 colon = test system: COLO 205 colon
# SR leukemia = test system: SR leukemia
# RPMI-8226 leukemia = test system: RPMI-8226 leukemia
# HT29 colon = test system: HT29 colon
# SF-539 CNS = test system: SF-539 CNS
# BT-549 breast = test system: BT-549 breast
# K-562 leukemia = test system: K-562 leukemia
# SNB-19 CNS = test system: SNB-19 CNS
# UO-31 renal = test system: UO-31 renal
# SK-MEL-28 melanoma = test system: SK-MEL-28 melanoma
# CAKI-1 renal = test system: CAKI-1 renal
# TK-10 renal = test system: TK-10 renal
# MALME-3M melanoma = test system: MALME-3M melanoma
# SK-MEL-2 melanoma = test system: SK-MEL-2 melanoma
# LOX IMVI melanoma = test system: LOX IMVI melanoma
SMILES,TGI (MDA-N) [µM],TGI (T-47D breast) [µM],TGI (A549 NSCLC) [µM],TGI (NCI-H226 lung) [µM],TGI (COLO 205 colon) [µM],TGI (SR leukemia) [µM],TGI (RPMI-8226 leukemia) [µM],TGI (HT29 colon) [µM],TGI (SF-539 CNS) [µM],TGI (BT-549 breast) [µM],TGI (K-562 leukemia) [µM],TGI (SNB-19 CNS) [µM],TGI (UO-31 renal) [µM],TGI (SK-MEL-28 melanoma) [µM],TGI (CAKI-1 renal) [µM],TGI (TK-10 renal) [µM],TGI (MALME-3M melanoma) [µM],TGI (SK-MEL-2 melanoma) [µM],TGI (LOX IMVI melanoma) [µM]
C=C(Cl)C(Br)(CBr)CCC(Br)C(C)(C)Br (configuration not stated),> 10,> 1,> 10,> 10,> 10,> 1,4.96,> 10,4.92,> 10,> 10,> 10,> 10,> 10,> 10,> 10,,,
CCn1c(SCC(=O)NNC(=S)Nc2ccc(F)cc2)nc2ccccc2c1=O,> 100,> 100,> 100,> 100,> 100,> 100,> 100,> 100,> 100,> 100,> 100,> 100,> 100,> 100,,> 100,> 100,> 100,> 100
CC(CCC(=O)O)[C@H]1CCC2[C@H]3C(CC(=O)[C@@]21C)[C@@]1(C)CCC(O)C[C@H]1C[C@@H]3O (some centres not stated),> 100,> 100,> 100,> 100,> 100,> 100,> 100,> 100,> 100,> 100,> 100,> 100,> 100,> 100,> 100,,> 100,> 100,> 100
COc1cc(/C=C2\N=C(c3ccccc3)N(/N=C/c3cc4cc(C)ccc4nc3Cl)C2=O)cc(OC)c1OC,48.6,63.3,> 100,,63.7,57.4,42.8,> 100,41.8,> 100,> 100,> 100,> 100,> 100,> 100,> 100,,48,> 100
COc1ccccc1CNCc1nc2ccccc2[nH]1,> 100,> 100,> 100,> 100,> 100,> 100,> 100,> 100,> 100,> 100,> 100,> 100,> 100,> 100,> 100,> 100,,> 100,> 100
COc1ccc(C(=O)N2CCN(c3ccc4[nH]c(=O)oc4c3)CC2)cc1,> 100,> 100,> 100,> 100,> 100,> 100,> 100,> 100,> 100,> 100,,> 100,> 100,> 100,,> 100,> 100,> 100,> 100
CC(C)N1CCCOC(c2ccc([N+](=O)[O-])cc2)O1 (configuration not stated),> 100,> 100,> 100,> 100,> 100,> 100,,> 100,> 100,> 100,> 100,,> 100,> 100,> 100,> 100,> 100,> 100,> 100
O=C1CCSc2c(cnc3ccccc23)N1,> 100,> 100,> 100,> 100,> 100,> 100,> 100,> 100,> 100,> 100,> 100,,> 100,> 100,> 100,> 100,> 100,> 100,> 100
COc1ccc(N2C(=O)/C(=C\c3cc(OC)c(OC)c(OC)c3)S(=O)(=O)C2c2ccccc2)cc1 (configuration not stated),40.8,> 100,> 100,> 100,41.6,> 100,> 100,,> 100,> 100,> 100,> 100,> 100,> 100,> 100,> 100,> 100,71.1,> 100
O=c1c2c3c(sc2nc2n1N=CN(c1ccc(Cl)cc1)C2)CCCC3,> 100,> 100,> 100,> 100,> 100,51.1,> 100,> 100,,> 100,> 100,> 100,> 100,> 100,> 100,> 100,97.9,> 100,> 100
O=C1c2cccnc2C(=O)c2c1nc1ccccc1c2-c1cncc(-c2c3c(nc4ccccc24)C(=O)c2cccnc2C3=O)c1,0.778,2.91,2.6,0.883,0.617,0.0608,0.808,1.28,,1.52,> 24.8,1.57,0.946,1.57,1.64,2.86,1.52,4.1,0.449
CC(C)N(c1cc2c(cc1F)c(=O)c(C(=O)O)cn2-c1ccc(N2CCN(C)CC2)cn1)C(C)C,> 100,> 100,> 100,> 100,> 100,> 100,> 100,> 100,> 100,> 100,> 100,> 100,> 100,> 100,> 100,> 100,> 100,,> 100
O=C1NC(Cc2c[nH]c3ccccc23)C(=O)N2C(c3ccccc3)c3[nH]c4ccccc4c3C[C@@H]12 (some centres not stated),38.9,> 100,> 100,88.9,45.9,37.7,50.8,48.6,,46.4,55.1,> 100,67.3,> 100,55.9,91.4,33.7,46.5,40.6
C=CC(c1ccccc1)C1(O)c2cccc(O)c2C(=O)c2c(O)cccc21 (configuration not stated),20.7,42.3,32.9,39.8,,24.2,54.8,25.3,84.5,34.8,37.7,,41.6,41.4,42.5,38.6,,26.4,29.9
Cc1nc2ccc(N=NN(C)C)cc2[nH]1,> 100,> 100,> 100,> 100,> 100,> 100,> 100,> 100,,> 100,,> 100,> 100,> 100,> 100,> 100,> 100,> 100,> 100
N=C(N)C1CN(CC=O)C(=O)NC1=O (configuration not stated),> 100,> 100,> 100,> 100,> 100,> 100,> 100,> 100,,> 100,> 100,> 100,> 100,> 100,,> 100,> 100,,> 100
COC(=O)c1cc(C#N)[nH]c1-c1cccs1,> 100,> 100,> 100,> 100,> 100,> 100,> 100,,> 100,> 100,> 100,> 100,> 100,> 100,> 100,,,,
COC(=O)c1c(C(=O)OC)c(C(c2ccccc2)c2ccccc2)n(-c2ccccc2)c1Cl,> 10,> 10,> 10,> 10,> 10,> 10,> 10,> 10,> 10,> 10,> 10,> 10,> 10,> 10,> 10,> 10,> 10,,
CCOC(=O)Oc1cc2c(ccn2C)c2c1c1ccccc1n2C(=O)OCC,> 100,> 100,> 100,> 100,> 100,> 100,> 100,> 100,> 100,> 100,> 100,,> 100,> 100,> 100,> 100,> 100,> 100,> 100
NC(=S)N/N=C(/C(=O)Nc1nc2ccc([N+](=O)[O-])cc2s1)C1C(=O)NC(=S)NC1=O,> 100,> 100,> 100,> 100,> 100,> 100,> 100,> 100,> 100,> 100,> 100,> 100,> 100,> 100,> 100,,,> 100,> 100
CN1CCN(C(=S)N(C)C(=O)c2cccs2)CC1,> 100,> 100,> 100,> 100,> 100,> 100,> 100,> 100,,> 100,> 100,> 100,> 100,,,> 100,> 100,> 100,> 100
Cc1ccnc2c1ccc1nc3ccccc3n12,> 100,> 100,> 100,> 100,> 100,> 100,> 100,> 100,> 100,> 100,> 100,,> 100,,> 100,> 100,,> 100,> 100
CN1CCC/C1=C1\C(=O)c2cccn2C1=O,> 100,> 100,> 100,> 100,> 100,> 100,> 100,> 100,,> 100,> 100,> 100,> 100,> 100,> 100,> 100,> 100,> 100,> 100
CCCCc1ccc(N2C(=O)c3cccnc3S2(=O)=O)cc1,> 100,> 100,> 100,> 100,> 100,> 100,> 100,> 100,> 100,> 100,> 100,> 100,> 100,> 100,> 100,,> 100,> 100,
CCOC(=O)c1c(NC(=O)c2ccc(OC)cc2)sc2c1CCCC2,> 100,> 100,> 100,> 100,> 100,> 100,> 100,> 100,> 100,> 100,> 100,> 100,> 100,> 100,> 100,> 100,,> 100,
C(/C=N/NC1=NCCCN1)=N\NC1=NCCCN1,> 100,> 100,> 100,> 100,> 100,> 100,,> 100,> 100,> 100,> 100,> 100,> 100,> 100,> 100,,> 100,,> 100
COc1cc(/C=N/NC2=NCCCN2)ccc1O,> 100,> 100,> 100,> 100,> 100,> 100,> 100,> 100,> 100,> 100,> 100,> 100,> 100,> 100,,> 100,> 100,> 100,> 100

# Reference: PubChem BioAssay (NCI)
